How the values were obtained:
[1] = test system: Puccinia recondita f. Sp. Tritici; assay: Fungicidal activity against Puccinia recondita f. sp. tritici / wheat / leaf disc preventative (brown rust); assay type: in vivo; settings: foliar, 200 ppm in the applied formulation, wheat leaf segments cv. Kanzler, preventative (inoculated 1 day after application), compared to untreated, read-out: disease control
Procedure: Leaf disks or leaf segments of various plant species are cut from plants grown in a greenhouse. The cut leaf disks or segments are placed in multiwell plates (24-well format) onto water agar. The leaf disks are sprayed with a test solution before (preventative) or after (curative) inoculation. Compounds to be tested are prepared as DMSO solutions (max. 10 mg/mL) which are diluted to the appropriate concentration with 0.025% Tween20 just before spraying. The inoculated leaf disks or segments are incubated under defined conditions (temperature, relative humidity, light, etc.) according to the respective test system. A single evaluation of disease level is carried out 3 to 14 days after inoculation, depending on the pathosystem. Percent disease control relative to the untreated check leaf disks or segments is then calculated. Wheat leaf segments cv. Kanzler were placed on agar in multiwell plates (24-well format) and sprayed with the formulated test compound diluted in water. The leaf disks were inoculated with a spore suspension of the fungus 1 day after application. The inoculated leaf segments were incubated at 19° C. and 75% relative humidity (rh) under a light regime of 12 hours light/12 hours darkness in a climate cabinet and the activity of a compound was assessed as percent disease control compared to untreated when an appropriate level of disease damage appears in untreated check leaf segments (7 to 9 days after application). The following compounds at 200 ppm in the applied formulation give at least 80% disease control in this test when compared to untreated control leaf disks under the same conditions, which show extensive disease development.

[2] = test system: Puccinia recondita f. Sp. Tritici; assay: Fungicidal activity against Puccinia recondita f. sp. tritici / wheat / leaf disc curative (brown rust); assay type: in vivo; settings: foliar, 24 h, 200 ppm in the applied formulation, wheat leaf segments cv. Kanzler, curative (applied 1 day after inoculation), compared to untreated, read-out: disease control
Procedure: Leaf disks or leaf segments of various plant species are cut from plants grown in a greenhouse. The cut leaf disks or segments are placed in multiwell plates (24-well format) onto water agar. The leaf disks are sprayed with a test solution before (preventative) or after (curative) inoculation. Compounds to be tested are prepared as DMSO solutions (max. 10 mg/mL) which are diluted to the appropriate concentration with 0.025% Tween20 just before spraying. The inoculated leaf disks or segments are incubated under defined conditions (temperature, relative humidity, light, etc.) according to the respective test system. A single evaluation of disease level is carried out 3 to 14 days after inoculation, depending on the pathosystem. Percent disease control relative to the untreated check leaf disks or segments is then calculated. Wheat leaf segments cv. Kanzler are placed on agar in multiwell plates (24-well format). The leaf segments are then inoculated with a spore suspension of the fungus. Plates were stored in darkness at 19C and 75% relative humidity. The formulated test compound diluted in water was applied 1 day after inoculation. The leaf segments were incubated at 19° C. and 75% relative humidity under a light regime of 12 hours light/12 hours darkness in a climate cabinet and the activity of a compound was assessed as percent disease control compared to untreated when an appropriate level of disease damage appears in untreated check leaf segments (6 to 8 days after application). The following compounds at 200 ppm in the applied formulation give at least 80% disease control in this test when compared to untreated control leaf disks under the same conditions, which show extensive disease development.

[3] = test system: Glomerella lagenarium (Colletotrichum lagenarium); assay: Fungicidal activity against Glomerella lagenarium (Colletotrichum lagenarium) liquid culture / cucumber / preventative (anthracnose); assay type: cell-based; settings: Colletotrichum orbiculare; 20 ppm in the applied formulation; liquid culture (PDB), inhibition of growth measured photometrically 3 to 4 days after application; compared to untreated; read-out: disease control
Procedure: Mycelia fragments or conidia suspensions of a fungus prepared either freshly from liquid cultures of the fungus or from cryogenic storage, are directly mixed into nutrient broth. DMSO solutions of the test compound (max. 10 mg/mL) are diluted with 0.025% Tween20 by a factor of 50 and 10 μL of this solution is pipetted into a microtiter plate (96-well format). The nutrient broth containing the fungal spores/mycelia fragments is then added to give an end concentration of the tested compound. The test plates are incubated in the dark at 24° C. and 96% relative humidity. The inhibition of fungal growth is determined photometrically after 2 to 7 days, depending on the pathosystem, and percent antifungal activity relative to the untreated check is calculated. Conidia of the fungus from cryogenic storage are directly mixed into nutrient broth (PDB—potato dextrose broth). After placing a (DMSO) solution of test compound into a microtiter plate (96-well format), the nutrient broth containing the fungal spores is added. The test plates are incubated at 24° C. and the inhibition of growth is measured photometrically 3 to 4 days after application. The following compounds at 20 ppm in the applied formulation give at least 80% disease control in this test when compared to untreated control under the same conditions, which show extensive disease development.

CC(c1ccc(-c2noc(C(F)(F)F)n2)s1)n1cc(C(=O)NC2CCC2)cn1 (stereo not drawn) [Compound 1.79, N-cyclobutyl-1-[1-[5-[5-(trifluoromethyl)-1,2,4-oxadiazol-3-yl]-2-thienyl]ethyl]pyrazole-4-carboxamide]
≥ 80%: pest or weed control at 200 ppm [1] | pest or weed control at 200 ppm [2] | inhibition of growth at 20 ppm [3]

CC(C)CNC(=O)c1ccnn1Cc1ccc(-c2noc(C(F)(F)F)n2)s1 [Compound 1.160, N-isobutyl-2-[[5-[5-(trifluoromethyl)-1,2,4-oxadiazol-3-yl]-2-thienyl]methyl]pyrazole-3-carboxamide]
≥ 80%: pest or weed control at 200 ppm [1] | pest or weed control at 200 ppm [2] | inhibition of growth at 20 ppm [3]

N#Cc1cnn(Cc2ccc(-c3noc(C(F)(F)F)n3)s2)c1 [Compound 1.11, 1-[[5-[5-(trifluoromethyl)-1,2,4-oxadiazol-3-yl]-2-thienyl]methyl]pyrazole-4-carbonitrile]
≥ 80%: pest or weed control at 200 ppm [1] | pest or weed control at 200 ppm [2] | inhibition of growth at 20 ppm [3]

CC(C)NC(=O)c1cnn(Cc2ccc(-c3noc(C(F)(F)F)n3)s2)c1 [Compound 1.102, N-isopropyl-1-[[5-[5-(trifluoromethyl)-1,2,4-oxadiazol-3-yl]-2-thienyl]methyl]pyrazole-4-carboxamide]
≥ 80%: pest or weed control at 200 ppm [1] | pest or weed control at 200 ppm [2] | inhibition of growth at 20 ppm [3]

O=C(NCc1ccco1)c1ncn(Cc2ccc(-c3noc(C(F)(F)F)n3)s2)n1 [Compound 1.96, N-(2-furylmethyl)-1-[[5-[5-(trifluoromethyl)-1,2,4-oxadiazol-3-yl]-2-thienyl]methyl]-1,2,4-triazole-3-carboxamide]
≥ 80%: pest or weed control at 200 ppm [1] | pest or weed control at 200 ppm [2] | inhibition of growth at 20 ppm [3]

C#CCNC(=O)c1ccnn1Cc1ccc(-c2noc(C(F)(F)F)n2)s1 [Compound 1.168, N-prop-2-ynyl-2-[[5-[5-(trifluoromethyl)-1,2,4-oxadiazol-3-yl]-2-thienyl]methyl]pyrazole-3-carboxamide]
≥ 80%: pest or weed control at 200 ppm [1] | pest or weed control at 200 ppm [2] | inhibition of growth at 20 ppm [3]

O=C(c1ccnn1Cc1ccc(-c2noc(C(F)(F)F)n2)s1)N1CCOCC1 [Compound 1.166, morpholino-[2-[[5-[5-(trifluoromethyl)-1,2,4-oxadiazol-3-yl]-2-thienyl]methyl]pyrazol-3-yl]methanone]
≥ 80%: pest or weed control at 200 ppm [1] | pest or weed control at 200 ppm [2] | inhibition of growth at 20 ppm [3]

O=C(NC1CCCCC1)c1cnn(Cc2ccc(-c3noc(C(F)(F)F)n3)s2)c1 [Compound 1.105, N-cyclohexyl-1-[[5-[5-(trifluoromethyl)-1,2,4-oxadiazol-3-yl]-2-thienyl]methyl]pyrazole-4-carboxamide]
≥ 80%: pest or weed control at 200 ppm [1] | pest or weed control at 200 ppm [2] | inhibition of growth at 20 ppm [3]

O=[N+]([O-])c1cnn(Cc2ccc(-c3noc(C(F)(F)F)n3)s2)c1 [Compound 1.9, 3-[5-[(4-nitropyrazol-1-yl)methyl]-2-thienyl]-5-(trifluoromethyl)-1,2,4-oxadiazole]
≥ 80%: pest or weed control at 200 ppm [1] | pest or weed control at 200 ppm [2] | inhibition of growth at 20 ppm [3]

O=C(NC1CCC1)c1ncn(Cc2ccc(-c3noc(C(F)(F)F)n3)s2)n1 [Compound 1.91, N-cyclobutyl-1-[[5-[5-(trifluoromethyl)-1,2,4-oxadiazol-3-yl]-2-thienyl]methyl]-1,2,4-triazole-3-carboxamide]
≥ 80%: pest or weed control at 200 ppm [1] | pest or weed control at 200 ppm [2] | inhibition of growth at 20 ppm [3]

O=C(NC1CCCC1)c1ncn(Cc2ccc(-c3noc(C(F)(F)F)n3)s2)n1 [Compound 1.94, N-cyclopentyl-1-[[5-[5-(trifluoromethyl)-1,2,4-oxadiazol-3-yl]-2-thienyl]methyl]-1,2,4-triazole-3-carboxamide]
≥ 80%: pest or weed control at 200 ppm [1] | pest or weed control at 200 ppm [2] | inhibition of growth at 20 ppm [3]

FC(F)(F)c1nc(-c2ccc(Cn3ccc4cccnc43)s2)no1 [Compound 1.8, 3-[5-(pyrrolo[2,3-b]pyridin-1-ylmethyl)-2-thienyl]-5-(trifluoromethyl)-1,2,4-oxadiazole]
≥ 80%: pest or weed control at 200 ppm [1] | pest or weed control at 200 ppm [2] | inhibition of growth at 20 ppm [3]

O=C(NCc1ccco1)c1cnn(Cc2ccc(-c3noc(C(F)(F)F)n3)s2)c1 [Compound 1.129, N-(2-furylmethyl)-1-[[5-[5-(trifluoromethyl)-1,2,4-oxadiazol-3-yl]-2-thienyl]methyl]pyrazole-4-carboxamide]
≥ 80%: pest or weed control at 200 ppm [1] | pest or weed control at 200 ppm [2] | inhibition of growth at 20 ppm [3]

CCN(CC)C(=O)c1ccn(Cc2ccc(-c3noc(C(F)(F)F)n3)s2)n1 [Compound 1.128, N,N-diethyl-1-[[5-[5-(trifluoromethyl)-1,2,4-oxadiazol-3-yl]-2-thienyl]methyl]pyrazole-3-carboxamide]
≥ 80%: pest or weed control at 200 ppm [1] | pest or weed control at 200 ppm [2] | inhibition of growth at 20 ppm [3]

CONC(=O)c1cnn(C(C)c2ccc(-c3noc(C(F)(F)F)n3)s2)c1 (stereo not drawn) [Compound 1.82, N-methoxy-1-[1-[5-[5-(trifluoromethyl)-1,2,4-oxadiazol-3-yl]-2-thienyl]ethyl]pyrazole-4-carboxamide]
≥ 80%: pest or weed control at 200 ppm [1] | pest or weed control at 200 ppm [2] | inhibition of growth at 20 ppm [3]

CCN(C)C(=O)c1cnn(C(C)c2ccc(-c3noc(C(F)(F)F)n3)s2)c1 (stereo not drawn) [Compound 1.88, N-ethyl-N-methyl-1-[1-[5-[5-(trifluoromethyl)-1,2,4-oxadiazol-3-yl]-2-thienyl]ethyl]pyrazole-4-carboxamide]
≥ 80%: pest or weed control at 200 ppm [1] | pest or weed control at 200 ppm [2] | inhibition of growth at 20 ppm [3]

CC(c1ccc(-c2noc(C(F)(F)F)n2)s1)n1cc(C(=O)NCc2ccco2)cn1 (stereo not drawn) [Compound 1.85, N-(2-furylmethyl)-1-[1-[5-[5-(trifluoromethyl)-1,2,4-oxadiazol-3-yl]-2-thienyl]ethyl]pyrazole-4-carboxamide]
≥ 80%: pest or weed control at 200 ppm [1] | pest or weed control at 200 ppm [2] | inhibition of growth at 20 ppm [3]

CNC(=O)c1cnn(C(C)c2ccc(-c3noc(C(F)(F)F)n3)s2)c1 (stereo not drawn) [Compound 1.70, N-methyl-1-[1-[5-[5-(trifluoromethyl)-1,2,4-oxadiazol-3-yl]-2-thienyl]ethyl]pyrazole-4-carboxamide]
≥ 80%: pest or weed control at 200 ppm [1] | pest or weed control at 200 ppm [2] | inhibition of growth at 20 ppm [3]
